Measurements from patent publication US20250041179A1, “ANTIMICROBIAL COMBINATIONS” (SYMRISE AG, priority 2021, published 2025).

Assays:
[1] = test system: P. aeruginosa; assay: Preservative efficacy test (Ph. Eur., adjusted inoculum) in shampoo formulation; assay type: cell-based, Pseudomonas aeruginosa; details: substance alone 0.5% w/w
Method: (§1) Preservative efficacy tests were performed according to the European Pharmacopoeia with adjusted inoculation numbers (10^6-10^7 cells of suitable bacteria or fungi). Material was tested in predesigned standardised cosmetic formulations either as oil-in-water anionic emulsion (Table 2), shampoo (Table 3), or wet wipe solution (Table 4). The antimicrobial actives were dissolved or mixed with the standardised cosmetic formulations, leading to the indicated test concentrations (in w/w %, cf. Tables 5 to 12 below). To determine synergistic indices, raw values for bacterial of fungal colony counts were used.
(§2) [formula] • where • SI is the synergism index according to Kull • CA is the cell count for substance A (also “count A”) • CB is the cell count for substance B (also “count B”) • Cmixture is the cell count for the mixture of substance A and B (also “count mix”) • PA is the proportion of the substance A in the mixture in relation to the concentration tested alone • PB is the proportion of the substance B in the mixture in relation to the concentration tested alone

[2] = test system: C. albicans; assay: as above; assay type: cell-based, Candida albicans; details: substance alone 0.5% w/w
Method: as §1, §2

[3] = test system: E. coli; assay: as above; assay type: cell-based, Escherichia coli; details: substance alone 0.5% w/w
Method: as §1
(§3) To calculate the synergism between the indicated antimicrobial actives (cf. preservative efficacy tests below), the Kull equation (Kull et al., Applied Microbiology 1961, 9 (6), pp. 538-541, DOI: 10.1128/am.9.6.538-541.1961.; Steinberg D. C. (2000): Measuring Synergy. In Cosmetics & Toiletries, 115) was used:
as §2

[4] = test system: S. aureus; assay: Preservative efficacy test (Ph. Eur., adjusted inoculum) in O/W anionic emulsion; assay type: cell-based, Staphylococcus aureus; details: substance alone 0.5% w/w
Method: (§4) Material was tested in predesigned standardised cosmetic formulations either as oil-in-water anionic emulsion (Table 2), shampoo (Table 3), or wet wipe solution (Table 4). The antimicrobial actives were dissolved or mixed with the standardised cosmetic formulations, leading to the indicated test concentrations (in w/w %, cf. […] To determine synergistic indices, raw values for bacterial of fungal colony counts were used. [table] […] Steinberg D. C. (2000): Measuring Synergy. In Cosmetics & Toiletries, 115) was used: […]

[5] = test system: E. coli; assay: as above; assay type: cell-based, Escherichia coli; details: substance alone 0.5% w/w
Method: as §4

[6] = test system: A. brasiliensis; assay: Preservative efficacy test (Ph. Eur., adjusted inoculum) in shampoo formulation; assay type: cell-based, Aspergillus brasiliensis
Method: as §1, §2

[7] = test system: S. aureus; assay: as above; assay type: cell-based, Staphylococcus aureus; details: substance alone 0.2% w/w
Method: as §1, §3, §2

SMILES: O=C(O)c1ccccc1O [Salicylic Acid, salicylic acid, reference compound]
- Absolute cell counts 2 days [1]: 1
- Relative cell counts 2 days [1]: 0.0000
- Absolute cell counts 7 days [1]: 1
- Relative cell counts 7 days [1]: 0.0000
- Absolute cell counts 14 days [1]: 1
- Relative cell counts 14 days [1]: 0.0000
- Absolute cell counts 28 days [1]: 1
- Relative cell counts 28 days [1]: 0.0000
- Absolute cell counts 2 days [2]: 7.30E+01
- Relative cell counts 2 days [2]: 0.0000
- Absolute cell counts 7 days [2]: 1
- Relative cell counts 7 days [2]: 0.0000
- Absolute cell counts 14 days [2]: 1
- Relative cell counts 14 days [2]: 0.0000
- Absolute cell counts 28 days [2]: 1
- Relative cell counts 28 days [2]: 0.0000
- Absolute cell counts 2 days [3]: 9.50E+03
- Relative cell counts 2 days [3]: 0.0021
- Absolute cell counts 7 days [3]: 7.20E+03
- Relative cell counts 7 days [3]: 0.0016
- Absolute cell counts 14 days [3]: 1
- Relative cell counts 14 days [3]: 0.0000
- Absolute cell counts 28 days [3]: 1
- Relative cell counts 28 days [3]: 0.0000

SMILES: Cc1cc(CC(C)CC(C)(C)C)n(O)c(=O)c1.NCCO (centres unmarked) [Piroctone olamine, piroctone olamine, reference compound]
- Absolute cell counts 2 days ([4]; 2 days): 2.50E+06
- Relative cell counts 2 days ([4]; 2 days): 0.7813
- Absolute cell counts 7 days ([4]; 7 days): 3.80E+04
- Relative cell counts 7 days ([4]; 7 days): 0.0119
- Absolute cell counts 14 days ([4]; 14 days): 1
- Relative cell counts 14 days ([4]; 14 days): 0.0000
- Absolute cell counts 28 days ([4]; 28 days): 1
- Relative cell counts 28 days ([4]; 28 days): 0.0000
- Absolute cell counts 2 days ([5]; 2 days): 1
- Relative cell counts 2 days ([5]; 2 days): 0.0000
- Absolute cell counts 7 days ([5]; 7 days): 1
- Relative cell counts 7 days ([5]; 7 days): 0.0000
- Absolute cell counts 14 days ([5]; 14 days): 1
- Relative cell counts 14 days ([5]; 14 days): 0.0000
- Absolute cell counts 28 days ([5]; 28 days): 1
- Relative cell counts 28 days ([5]; 28 days): 0.0000
- Absolute cell counts 2 days [1]: 1
- Relative cell counts 2 days [1]: 0.0000
- Absolute cell counts 7 days [1]: 1
- Relative cell counts 7 days [1]: 0.0000
- Absolute cell counts 14 days [1]: 1
- Relative cell counts 14 days [1]: 0.0000
- Absolute cell counts 28 days [1]: 1
- Relative cell counts 28 days [1]: 0.0000
- Absolute cell counts 2 days [2]: 1
- Relative cell counts 2 days [2]: 0.0000
- Absolute cell counts 7 days [2]: 1
- Relative cell counts 7 days [2]: 0.0000
- Absolute cell counts 14 days [2]: 1
- Relative cell counts 14 days [2]: 0.0000
- Absolute cell counts 28 days [2]: 1
- Relative cell counts 28 days [2]: 0.0000

SMILES: CC(C)(C)C(=O)C(Oc1ccc(Cl)cc1)n1ccnc1 (centres unmarked) [Climbazole, climbazole, reference compound]
- Absolute cell counts 2 days ([6]; substance alone 0.5% w/w): 1.50E+05
- Relative cell counts 2 days ([6]; substance alone 0.5% w/w): 0.0366
- Absolute cell counts 7 days ([6]; substance alone 0.5% w/w): 6.20E+04
- Relative cell counts 7 days ([6]; substance alone 0.5% w/w): 0.0151
- Absolute cell counts 14 days ([6]; substance alone 0.5% w/w): 5.90E+04
- Relative cell counts 14 days ([6]; substance alone 0.5% w/w): 0.0144
- Absolute cell counts 28 days ([6]; substance alone 0.5% w/w): 4.60E+04
- Relative cell counts 28 days ([6]; substance alone 0.5% w/w): 0.0112

SMILES: O=C([O-])c1ccccc1.[Na+] [Sodium Benzoate, sodium benzoate]
- Absolute cell counts 2 days [1]: 9.60E+03
- Relative cell counts 2 days [1]: 0.0026
- Absolute cell counts 7 days [1]: 1
- Relative cell counts 7 days [1]: 0.0000
- Absolute cell counts 14 days [1]: 1
- Relative cell counts 14 days [1]: 0.0000
- Absolute cell counts 28 days [1]: 1
- Relative cell counts 28 days [1]: 0.0000
- Absolute cell counts 2 days [3]: 8.70E+05
- Relative cell counts 2 days [3]: 0.1933
- Absolute cell counts 7 days [3]: 9.50E+05
- Relative cell counts 7 days [3]: 0.2111
- Absolute cell counts 14 days [3]: 4.20E+05
- Relative cell counts 14 days [3]: 0.0933
- Absolute cell counts 28 days [3]: 2.40E+04
- Relative cell counts 28 days [3]: 0.0053
- Absolute cell counts 2 days ([7]; 2 days): 2.20E+04
- Relative cell counts 2 days ([7]; 2 days): 0.0037
- Absolute cell counts 7 days ([7]; 7 days): 1
- Relative cell counts 7 days ([7]; 7 days): 0.0000
- Absolute cell counts 14 days ([7]; 14 days): 1
- Relative cell counts 14 days ([7]; 14 days): 0.0000
- Absolute cell counts 28 days ([7]; 28 days): 1
- Relative cell counts 28 days ([7]; 28 days): 0.0000
- Absolute cell counts 2 days ([6]; substance alone 0.2% w/w): 8.00E+04
- Relative cell counts 2 days ([6]; substance alone 0.2% w/w): 0.0800
- Absolute cell counts 7 days ([6]; substance alone 0.2% w/w): 1.10E+04
- Relative cell counts 7 days ([6]; substance alone 0.2% w/w): 0.0110
- Absolute cell counts 14 days ([6]; substance alone 0.2% w/w): 3.30E+02
- Relative cell counts 14 days ([6]; substance alone 0.2% w/w): 0.0003
- Absolute cell counts 28 days ([6]; substance alone 0.2% w/w): 3.20E+02
- Relative cell counts 28 days ([6]; substance alone 0.2% w/w): 0.0003

SMILES: C/C=C/C=C/C(=O)[O-].[K+] [Potassium Sorbate, potassium sorbate]
- Absolute cell counts 2 days ([6]; substance alone 0.5% w/w): 1.40E+04
- Relative cell counts 2 days ([6]; substance alone 0.5% w/w): 0.0034
- Absolute cell counts 7 days ([6]; substance alone 0.5% w/w): 1
- Relative cell counts 7 days ([6]; substance alone 0.5% w/w): 0.0000
- Absolute cell counts 14 days ([6]; substance alone 0.5% w/w): 1
- Relative cell counts 14 days ([6]; substance alone 0.5% w/w): 0.0000
- Absolute cell counts 28 days ([6]; substance alone 0.5% w/w): 1
- Relative cell counts 28 days ([6]; substance alone 0.5% w/w): 0.0000
